We go through 44 molecules from ChEMBL document CHEMBL1143686, “Alkylation potency and protein specificity of aromatic urea derivatives and bioisosteres as potential irreversible antagonists of the colchicine-binding site” (2007).

The term GI50 denotes the concentration that inhibits growth by half. Read a low GI50 as more potent growth inhibition.

Active and inactive are the calls of the source. The rule behind the calls is not given here.

Experiment [1] relates to M21. The experiment is described as follows: Alkylation of beta tubulin in human M21 cells at 25 uM. The experiment is classed as functional, cell-based.
For experiment [2], the system named is MCF7. Description: Growth inhibition of human MCF7 cells after 48 hrs. Conditions: MCF7, 48 h. The experiment is classed as functional.
Experiment [3] has as its system M21. The experiment is described as follows: Growth inhibition of human M21 cells after 48 hrs. The experiment is classed as functional. Conditions: M21, 48 h.
Experiment [4] deals with HT-29. Description: Growth inhibition of human HT29 cells after 48 hrs. Type of experiment: functional. The settings on record: HT-29, 48 h.
Experiment [5] concerns M21. The experiment is described as follows: Alkylation of beta tubulin in human M21 cells at 25 uM after 16 to 24 hrs. Type of experiment: functional, cell-based.
Experiment [6] has as its system M21. Description: Cell cycle arrest by accumulation at G2/M phase in human M21 cells after 24 hrs by flow cytometry. The experiment is classed as functional, cell-based.

Consider `Cc1cccc(NC(=O)NC(=O)CCl)c1`, for which the outcome in experiment [1] was inactive. Further, the values for the 50% growth inhibitory concentration (GI50) in experiment [2], in experiment [3] and in experiment [4] were 6.1 µM, 4 µM and 9 µM, respectively.

As to `O=C(CCl)NC(=O)Nc1ccc2c(c1)CCC2`, the outcome in experiment [1] was inactive. Also, the GI50 in experiment [2] came to 4 µM; in experiment [3] it was 1.7 µM; in experiment [4] it was 7 µM.

In the case of `Cc1ccc(C)c(NC(=O)NCCCl)c1`, the GI50 in experiment [4] is 67 µM.

`Cc1ccccc1NC1=NCCO1`: the GI50 in experiment [2] was determined as 21 µM; in experiment [3] it was 18 µM; in experiment [4], 13 µM.

`O=C(NCCCl)Nc1ccc(I)cc1`: the GI50 turned out to be 6 µM in experiment [2], 3.9 µM in experiment [3] and 1.9 µM in experiment [4].

In the case of `Cc1ccc(NC2=NCCO2)cc1`, the GI50 amounted to 27 µM in experiment [2], 22 µM in experiment [3] and 13 µM in experiment [4].

Turning to `Cc1ccc(C)c(NC(=O)NC(=O)CCl)c1`, the result in experiment [1] was inactive. Further, the figures for the GI50 in experiment [2], in experiment [3] and in experiment [4] were 5.8 µM, 3.8 µM and 6.7 µM, respectively.

Regarding `Cc1ccc(NC(=O)NC(=O)CCl)c(C)c1`, the outcome in experiment [1] was inactive. Moreover, the 50% growth inhibitory concentration (GI50) was determined as 8.6 µM in experiment [2], 7.4 µM in experiment [3] and 11 µM in experiment [4].

With `Cc1cccc(C)c1NC(=O)NC(=O)CCl`, the result in experiment [1] was inactive. Also, the results for the GI50 in experiment [2], in experiment [3] and in experiment [4] were 7.4 µM, 6.3 µM and 6.6 µM, respectively.

Turning to `Ic1ccc(NC2=NCCO2)cc1`, the GI50 in experiment [2] stood at 2.9 µM; in experiment [3], 2 µM; in experiment [4] it was 1.3 µM. Besides, the outcome in experiment [5] was Active.

With `Cc1cc(C)cc(NC(=O)NCCCl)c1`, the concentration for 50% growth inhibition (GI50) in experiment [2] came to 31 µM; in experiment [3], 16 µM; in experiment [4], 8.5 µM.

As for `Cc1cccc(NC2=NCCO2)c1`, the results for the GI50 in experiment [2], in experiment [3] and in experiment [4] were 52 µM, 61 µM and 33 µM, respectively.

`COc1cc2c(c(OC)c1OC)-c1ccc(OC)c(=O)cc1[C@@H](NC(C)=O)CC2` [COLCHICINE]: the GI50 in experiment [2] was found to be 0.009 µM; in experiment [3], 0.015 µM; in experiment [4], 0.004 µM.

`Cc1ccc(NC(=O)NCCCl)c(C)c1` registered a GI50 in experiment [4] of 78 µM.

Consider `Cc1ccc(C)c(NC2=NCCO2)c1`, for which the values for the GI50 in experiment [2], in experiment [3] and in experiment [4] were 72 µM, 73 µM and 44 µM, respectively.

Turning to `CC(C)(C)c1ccc(NC2=NCCO2)cc1`, the concentration for 50% growth inhibition (GI50) in experiment [2] is 3 µM; in experiment [3], 2.4 µM; in experiment [4], 1.5 µM. For the same molecule, in experiment [5], the result was Active.

On to `O=C(CCl)NC(=O)Nc1cccc2c1CCC2`, for which the outcome in experiment [1] was inactive. For the same molecule, the GI50 in experiment [2] was determined as 2.2 µM; in experiment [3], 4.9 µM; in experiment [4] it was 3.2 µM.

As for `c1ccc2c(c1)-c1ccccc1C2NC1=NCCO1`, the GI50 in experiment [2] was 11 µM; in experiment [3], 17 µM; in experiment [4], 15 µM.

On to `CC(=O)O[C@H]1C(=O)[C@@]2(C)[C@H]([C@H](OC(=O)c3ccccc3)[C@]3(O)C[C@H](OC(=O)[C@H](O)[C@@H](NC(=O)c4ccccc4)c4ccccc4)C(C)=C1C3(C)C)[C@]1(OC(C)=O)CO[C@@H]1C[C@@H]2O` [PACLITAXEL], for which the GI50 in experiment [2] was 0.054 µM; in experiment [3], 0.037 µM; in experiment [4], 0.015 µM.

As to `Cc1cccc(NC(=O)NCCCl)c1`, the GI50 came to 81 µM in experiment [3] and 39 µM in experiment [4].

`Cc1ccc(NC(=O)NC(=O)CCl)cc1`: the result in experiment [1] was inactive. Further, the concentration for 50% growth inhibition (GI50) in experiment [2] was 7.5 µM; in experiment [3] it was 4.9 µM; in experiment [4], 10 µM.

`Cc1ccc(NC2=NCCO2)c(C)c1`: the result in experiment [1] was inactive. For the same molecule, the GI50 in experiment [2] was 23 µM; in experiment [3], 26 µM; in experiment [4] it was 15 µM.

Turning to `Cc1ccc(NC(=O)NCCCl)cc1`, the GI50 in experiment [2] was 44 µM; in experiment [3], 33 µM; in experiment [4] it was 16 µM.

Turning to `O=C(NCCCl)Nc1ccc2c(c1)Cc1ccccc1-2`, the 50% growth inhibitory concentration (GI50) was 14.2 µM in experiment [2], 5.1 µM in experiment [3] and 2.3 µM in experiment [4]. Besides, the outcome in experiment [6] was Active.

In the case of `Cc1cc(C)cc(NC2=NCCO2)c1`, the GI50 is 19 µM in experiment [2], 12 µM in experiment [3] and 7 µM in experiment [4].

Regarding `Cc1cc(C)cc(NC(=O)NC(=O)CCl)c1`, the outcome in experiment [1] was inactive. Further, the 50% growth inhibitory concentration (GI50) in experiment [2] worked out at 4.3 µM; in experiment [3] it was 3.7 µM; in experiment [4] it was 6.1 µM.

Turning to `Cc1ccc(NC(=O)NCCCl)cc1C`, the GI50 in experiment [2] came out at 12 µM; in experiment [3] it was 8.4 µM; in experiment [4] it was 4.2 µM.

Consider `CC[C@]1(O)C[C@@H]2CN(CCc3c([nH]c4ccccc34)[C@@](C(=O)OC)(c3cc4c(cc3OC)N(C)[C@H]3[C@@](O)(C(=O)OC)[C@H](OC(C)=O)[C@]5(CC)C=CCN6CC[C@]43[C@@H]65)C2)C1` [VINBLASTINE], for which the GI50 in experiment [2] came to 0.002 µM; in experiment [3] it was 0.01 µM; in experiment [4], 0.002 µM.

As for `O=C(CCl)NC(=O)Nc1ccc2c(c1)Cc1ccccc1-2`, in experiment [1], the outcome was inactive. In addition, the GI50 stood at 5 µM in experiment [2], 4.8 µM in experiment [3] and 13 µM in experiment [4].

Turning to `O=C(CCl)NC(=O)Nc1ccc(I)cc1`, the figures for the concentration for 50% growth inhibition (GI50) in experiment [2], in experiment [3] and in experiment [4] were 6.8 µM, 4.2 µM and 6.9 µM, respectively.

Turning to `CC(C)(C)c1ccc(NC(=O)NCCCl)cc1`, the GI50 in experiment [2] stood at 6.2 µM; in experiment [3], 4.3 µM; in experiment [4], 2.3 µM.

`O=C(NCCCl)Nc1cccc2c1CCC2` had a GI50 in experiment [4] of 95 µM.

For the molecule `c1cc2c(c(NC3=NCCO3)c1)CCC2`, the GI50 in experiment [2] amounted to 26 µM; in experiment [3], 30 µM; in experiment [4], 16 µM.

Regarding `Cc1ccccc1NC(=O)NC(=O)CCl`, the result in experiment [1] was inactive. For the same molecule, the values for the 50% growth inhibitory concentration (GI50) in experiment [2], in experiment [3] and in experiment [4] were 10.6 µM, 6.9 µM and 9.8 µM, respectively.

For `O=C(NCCCl)Nc1ccc2c(c1)CCC2`, the concentration for 50% growth inhibition (GI50) in experiment [2] was found to be 17 µM; in experiment [3], 8.9 µM; in experiment [4] it was 4.7 µM. The result in experiment [6] was Active.

Consider `Cc1cccc(NC2=NCCO2)c1C`, for which the result in experiment [1] was inactive. Also, the 50% growth inhibitory concentration (GI50) is 15 µM in experiment [2], 17 µM in experiment [3] and 9 µM in experiment [4].

With `Cc1ccc(NC2=NCCO2)cc1C`, the GI50 amounted to 5.7 µM in experiment [2], 5.1 µM in experiment [3] and 2.7 µM in experiment [4]. Besides, the result in experiment [5] was Active.

On to `Cc1cccc(NC(=O)NC(=O)CCl)c1C`, for which, in experiment [1], the result was inactive. Moreover, the GI50 in experiment [2] worked out at 6.5 µM; in experiment [3] it was 4.7 µM; in experiment [4] it was 6 µM.

On to `O=C(CCl)NC(=O)NC1c2ccccc2-c2ccccc21`, for which, in experiment [1], the outcome was inactive. Also, the GI50 was determined as 4.8 µM in experiment [2], 3.4 µM in experiment [3] and 8.6 µM in experiment [4].

`O=C(NCCCl)NC1c2ccccc2-c2ccccc21`: the results for the GI50 in experiment [2], in experiment [3] and in experiment [4] were 21 µM, 38 µM and 16 µM, respectively.

As for `CC(C)(C)c1ccc(NC(=O)NC(=O)CCl)cc1`, the GI50 stood at 4.8 µM in experiment [2], 1.1 µM in experiment [3] and 3.3 µM in experiment [4].

With `Cc1cccc(C)c1/N=C1/NCCO1`, the GI50 in experiment [2] was 23 µM; in experiment [3] it was 27 µM; in experiment [4], 15 µM.

In the case of `Cc1ccc(NC(=O)NC(=O)CCl)cc1C`, the result in experiment [1] was inactive. The GI50 was determined as 5.5 µM in experiment [2], 4.3 µM in experiment [3] and 6.9 µM in experiment [4].

Regarding `c1cc2c(cc1NC1=NCCO1)CCC2`, the GI50 in experiment [2] came to 9.1 µM; in experiment [3] it was 8.1 µM; in experiment [4], 4.9 µM. The result in experiment [6] and in experiment [5] was Active.
